In patent US20240018161A1, “MODULATORS OF CYSTIC FIBROSIS TRANSMEMBRANE CONDUCTANCE REGULATOR” (VERTEX PHARMACEUTICALS INCORPORATED, priority 2020, published 2024):

Tests used:
[1] = biological target: T1, CFTR-mediated chloride transport in human intestinal epithelial enteroid cells (Homo sapiens, UniProt P13569); assay: Membrane potential dye, Enteroid Assay B; assay type: cell-based; conditions: Enteroid Assay B; for EC50: read-out: Ent. B EC50
Experimental: Base medium (ADF+++) consisted of Advanced DMEM/Ham's F12, 2 mM Glutamax, 10 mM HEPES, […] penicillin/streptomycin.
Bath 1 Buffer consisted of 1 mM MgCl2, 160 mM NaCl, 4.5 mM KCl, 10 mM HEPES, 10 mM Glucose, 2 mM CaCl2.
Chloride Free Buffer consisted of 1 mM Magnesium Gluconate, 2 mM Calcium Gluconate, 4.5 mM Potassium Gluconate, 160 mM Sodium Gluconate, 10 mM HEPES, 10 mM Glucose.
Bath1 Dye Solution consisted of Bath 1 Buffer, 0.04% Pluronic F127, 20 μM Methyl Oxonol, 30 μM CaCCinh-A01, 30 μM Chicago Sky Blue.
Chloride Free Dye Solution consisted of Chloride Free Buffer, 0.04% Pluronic F127, 20 μM Methyl Oxonol, 30 μM CaCCinh-A01, 30 μM Chicago Sky Blue.
3. Enteroid Cell Harvesting and Seeding
Cells were recovered in cell recovery solution, collected by centrifugation at 650 rpm for 5 min at 4° C., resuspended in TryPLE and incubated for 5 min at 37° C. Cells were then collected by centrifugation at 650 rpm for 5 min at 4° C. and resuspended in IEMM containing 10 μM ROCK inhibitor (RI).
5. Membrane Potential Dye, Enteroid Assay B
Briefly, cells were washed 5 times in Bath 1 Buffer. Bath 1 Dye Solution was added and the cells were incubated for 25 min at room temperature. Following dye incubation, cells were washed 3 times in Chloride Free Dye Solution. Chloride transport was initiated by addition of Chloride Free Dye Stimulation Solution and the fluorescence signal was read for 15 min.

[2] = biological target: T1, CFTR-mediated chloride transport in human intestinal epithelial enteroid cells; assay: Membrane potential dye, Enteroid Assay A; assay type: cell-based; conditions: Enteroid Assay A; for EC50: read-out: Ent. A EC50
Summary of the method: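 Membrane potential dye (20 μM methyl oxonol, with 30 μM CaCCinh-A01 and 30 μM Chicago Sky Blue) loaded 25 min at room temperature into ROCK-inhibitor-seeded human enteroid cells. Chloride-free stimulation buffer triggered transport, followed by 15 min fluorescence. % Activity relative to 3 μM/3 μM/300 nM triple-combination control.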

T1 sequence (P13569 with tags, fused parts or gaps DEL508-508): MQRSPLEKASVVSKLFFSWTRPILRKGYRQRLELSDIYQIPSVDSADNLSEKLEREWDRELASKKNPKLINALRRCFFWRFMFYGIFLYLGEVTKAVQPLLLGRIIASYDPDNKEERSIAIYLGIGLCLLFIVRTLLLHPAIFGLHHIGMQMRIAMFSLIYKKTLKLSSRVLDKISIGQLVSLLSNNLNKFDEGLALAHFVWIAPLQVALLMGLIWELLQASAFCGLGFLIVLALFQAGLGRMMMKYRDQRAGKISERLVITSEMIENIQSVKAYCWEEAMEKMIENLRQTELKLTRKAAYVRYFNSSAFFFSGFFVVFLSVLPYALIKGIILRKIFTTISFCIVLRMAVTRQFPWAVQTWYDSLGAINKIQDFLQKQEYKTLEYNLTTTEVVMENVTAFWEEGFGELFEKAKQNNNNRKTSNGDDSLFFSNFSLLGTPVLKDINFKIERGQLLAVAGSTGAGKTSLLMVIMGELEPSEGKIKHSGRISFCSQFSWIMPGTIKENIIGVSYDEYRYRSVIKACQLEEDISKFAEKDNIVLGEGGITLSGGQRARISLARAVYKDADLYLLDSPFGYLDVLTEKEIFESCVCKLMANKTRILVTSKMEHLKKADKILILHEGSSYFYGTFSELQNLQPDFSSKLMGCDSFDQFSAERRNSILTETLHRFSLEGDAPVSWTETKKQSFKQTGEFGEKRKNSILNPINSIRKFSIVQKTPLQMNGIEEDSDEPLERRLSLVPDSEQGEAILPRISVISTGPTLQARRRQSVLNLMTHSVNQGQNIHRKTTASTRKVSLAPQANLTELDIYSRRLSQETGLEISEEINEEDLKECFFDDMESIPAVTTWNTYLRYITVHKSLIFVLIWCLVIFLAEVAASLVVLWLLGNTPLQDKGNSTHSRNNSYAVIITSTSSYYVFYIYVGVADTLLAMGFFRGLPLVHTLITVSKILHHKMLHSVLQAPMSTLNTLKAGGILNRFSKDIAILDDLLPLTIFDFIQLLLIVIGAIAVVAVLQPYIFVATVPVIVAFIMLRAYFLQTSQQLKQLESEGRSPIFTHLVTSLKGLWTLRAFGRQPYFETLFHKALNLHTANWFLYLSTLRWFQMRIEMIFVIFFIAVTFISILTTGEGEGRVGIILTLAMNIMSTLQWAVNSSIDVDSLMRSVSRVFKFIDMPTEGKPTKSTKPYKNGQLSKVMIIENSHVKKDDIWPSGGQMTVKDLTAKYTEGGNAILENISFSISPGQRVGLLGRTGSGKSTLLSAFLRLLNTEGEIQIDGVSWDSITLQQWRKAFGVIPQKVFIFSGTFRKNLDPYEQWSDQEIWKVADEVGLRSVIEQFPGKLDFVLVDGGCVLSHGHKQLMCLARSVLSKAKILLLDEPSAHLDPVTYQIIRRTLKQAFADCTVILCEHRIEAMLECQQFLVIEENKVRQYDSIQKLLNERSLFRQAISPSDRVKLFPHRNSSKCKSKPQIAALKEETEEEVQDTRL

Ent. B Max Activity (%) [1]	EC50 [1]	Ent. A Max Activity (%) [2]	EC50 [2]	Compound
+++ (+++ is >600%)	1 to 3 µM			Cc1cccc(C)c1-c1cc2nc(n1)NS(=O)(=O)c1cccc(c1)C(=O)N1C[C@@H](CN(C(=O)OC(C)(C)C)C[C@@H]1CCO)O2 (single isomer, unassigned) [Compound 137, tert-butyl 12-(2,6-dimethylphenyl)-20-(2-hydroxyethyl)-2,8,8-trioxo-15-oxa-8λ^6-thia-1,9,11,18,22-pentaazatetracyclo[14.4.1.13,7.110,14]tricosa-3(23),4,6,10(22),11,13-hexaene-18-carboxylate]
+ (+ is <30%)				Cc1cccc(C)c1-c1cc2nc(n1)NS(=O)(=O)c1cccc(c1)C(=O)N1C[C@@H](CCC[C@@H]1CC(C)C)O2 (single isomer, unassigned) [Compound 179]
++ (++ is 30-60%)	< 1 µM			Cc1cccc(C)c1-c1cc2nc(n1)NS(=O)(=O)c1cccc(c1)C(=O)N1C[C@@H](CCC[C@@H]1CC(C)C)O2 (single isomer, unassigned) [Compound 180]
+++ (+++ is >600%)	< 1 µM	+++ (+++ is >600%)	< 1 µM	Cc1cccc(C)c1-c1cc2nc(n1)NS(=O)(=O)c1cccc(c1)C(=O)N1Cc3cc(C(C)(C)C)ccc3C(C1)O2 (single isomer, unassigned) [Compound 183, 20-tert-butyl-12-(2,6-dimethylphenyl)-15-oxa-8λ^6-thia-1,9,11,25-tetraazapentacyclo[14.7.1.13,7.110,14.017,22]hexacosa-3,5,7(26),10,12,14(25),17,19,21-nonaene-2,8,8-trione]
++ (++ is 30-60%)	< 1 µM			Cc1cccc(C)c1-c1cc2nc(n1)NS(=O)(=O)c1cccc(c1)C(=O)N1C[C@H](O2)c2ccccc2[C@@H]1CC(C)C (single isomer, unassigned) [Compound 190, 12-(2,6-Dimethylphenyl)-23-(2-methylpropyl)-15-oxa-8λ^6-thia-1,9,11,25-tetraazapentacyclo[14.7.1.13,7.110,14.017,22]hexacosa-3(26),4,6,10(25),11,13,17,19,21-nonaene-2,8,8-trione]
++ (++ is 30-60%)	< 1 µM			Cc1cccc(C)c1-c1cc2nc(n1)NS(=O)(=O)c1cccc(c1)C(=O)N1C[C@H](O2)c2ccccc2[C@@H]1CC(C)C (single isomer, unassigned) [Compound 191, 12-(2,6-Dimethylphenyl)-23-(2-methylpropyl)-15-oxa-8λ^6-thia-1,9,11,25-tetraazapentacyclo[14.7.1.13,7.110,14.017,22]hexacosa-3(26),4,6,10(25),11,13,17,19,21-nonaene-2,8,8-trione]
+ (+ is <30%)				Cc1cccc(C)c1-c1cc2nc(n1)NS(=O)(=O)c1cccc(c1)C(=O)N1Cc3cc(C(C)(C)C)ccc3C(CO2)C1C (single isomer, unassigned) [Compound 218, 21-tert-Butyl-12-(2,6-dimethylphenyl)-25-methyl-15-oxa-8λ^6-thia-1,9,11,26-tetraazapentacyclo[15.7.1.13,7.110,14.018,23]heptacosa-3,5,7(27),10,12,14(26),18,20,22-nonaene-2,8,8-trione]
+++ (+++ is >600%)	< 1 µM			Cc1cccc(C)c1-c1cc2nc(n1)NS(=O)(=O)c1cccc(c1)C(=O)N1Cc3cc(C(C)(C)C)ccc3C(CO2)C1C (single isomer, unassigned) [Compound 219, 21-tert-butyl-12-(2,6-dimethylphenyl)-25-methyl-15-oxa-8λ^6-thia-1,9,11,26-tetraazapentacyclo[15.7.1.13,7.110,14.018,23]heptacosa-3,5,7(27),10,12,14(26),18,20,22-nonaene-2,8,8-trione]
+++ (+++ is >600%)	< 1 µM			Cc1cccc(C)c1-c1cc2nc(n1)NS(=O)(=O)c1cccc(c1)C(=O)N1CCc3cc(C(C)(C)C)ccc3[C@H]1CO2 (single isomer, unassigned) [Compound 236, 8-tert-Butyl-17-(2,6-dimethylphenyl)-14-oxa-21λ^6-thia-3,18,20,27-tetraazapentacyclo[20.3.1.115,19.03,12.06,11]heptacosa-1(26),6(11),7,9,15(27),16,18,22,24-nonaene-2,21,21-trione]
+++ (+++ is >600%)	< 1 µM	++ (++ is 30-60%)	< 1 µM	Cc1cccc(C)c1-c1cc2nc(n1)NS(=N)(=O)c1cccc(c1)C(=O)N1CCN(CCC(C)(C)C)C[C@H](C1)O2 (single isomer, unassigned) [Compound 245, 18-(3,3-dimethylbutyl)-12-(2,6-dimethylphenyl)-8-imino-15-oxa-8λ^6-thia-1,9,11,18,22-pentaazatetracyclo[14.4.1.13,7.110,14]tricosa-3,5,7(23),10,12,14(22)-hexaene-2,8-dione]
+++ (+++ is >600%)	< 1 µM	+++ (+++ is >600%)	< 1 µM	Cc1cccc(C)c1-c1cc2nc(n1)NS(=O)(=O)c1cccc(c1)C(=O)N1Cc3cc(C(C)(C)C)ccc3C(O2)[C@H]1CC(C)(C)C (stereo in doubt) [Compound 188, (16S,24R)-20-tert-Butyl-12-(2,6-dimethylphenyl)-24-(2,2-dimethylpropyl)-15-oxa-8λ^6-thia-1,9,11,25-tetraazapentacyclo[14.7.1.13,7.110,14.017,22]hexacosa-3(26),4,6,10(25),11,13,17,19,21-nonaene-2,8,8-trione]
+++ (+++ is >600%)	< 1 µM			Cc1cccc(C)c1-c1cc2nc(n1)NS(=O)(=O)c1cccc(c1)C(=O)N1CCN[C@H](CC(C)C)[C@H](C1)O2 [Compound 118, (16S,17R)-12-(2,6-Dimethylphenyl)-17-(2-methylpropyl)-15-oxa-8λ^6-thia-1,9,11,18,22-pentaazatetracyclo[14.4.1.13,7.110,14]tricosa-3(23),4,6,10(22),11,13-hexaene-2,8,8-trione]
+++ (+++ is >600%)	< 1 µM			Cc1cccc(C)c1-c1cc2nc(n1)NS(=O)(=O)c1cccc(c1)C(=O)N1CCN(C3CC4(CCCC4)C3)[C@H](CC(C)C)[C@H](C1)O2 [Compound 119, (16S,17R)-12-(2,6-dimethylphenyl)-17-(2-methylpropyl)-18-{spiro[3.4]octan-2-yl}-15-oxa-8λ^6-thia-1,9,11,18,22-pentaazatetracyclo[14.4.1.13,7.110,14]tricosa-3(23),4,6,10(22),11,13-hexaene-2,8,8-trione]
+++ (+++ is >600%)	< 1 µM			Cc1cccc(C)c1-c1cc2nc(n1)NS(=O)(=O)c1cccc(c1)C(=O)N1CCN(C3CC4(CCCCC4)C3)[C@H](CC(C)C)[C@H](C1)O2 [Compound 120, (16S,17R)-12-(2,6-dimethylphenyl)-17-(2-methylpropyl)-18-{spiro[3.5]nonan-2-yl}-15-oxa-8λ^6-thia-1,9,11,18,22-pentaazatetracyclo[14.4.1.13,7.110,14]tricosa-3(23),4,6,10(22),11,13-hexaene-2,8,8-trione]
+++ (+++ is >600%)	< 1 µM			Cc1cccc(C)c1-c1cc2nc(n1)NS(=O)(=O)c1cccc(c1)C(=O)N1CCN(C)[C@H](CC(C)C)[C@H](C1)O2 [Compound 121, (16S,17R)-12-(2,6-Dimethylphenyl)-18-methyl-17-(2-methylpropyl)-15-oxa-8λ^6-thia-1,9,11,18,22-pentaazatetracyclo[14.4.1.13,7.110,14]tricosa-3(23),4,6,10(22),11,13-hexaene-2,8,8-trione]
+++ (+++ is >600%)	< 1 µM			Cc1cccc(C)c1-c1cc2nc(n1)NS(=O)(=O)c1cccc(c1)C(=O)N1CCN(C(=O)CC(C)(C)C)[C@H](CC(C)C)[C@H](C1)O2 [Compound 122, (16S,17R)-18-(3,3-Dimethylbutanoyl)-12-(2,6-dimethylphenyl)-17-(2-methylpropyl)-15-oxa-8λ^6-thia-1,9,11,18,22-pentaazatetracyclo[14.4.1.13,7.110,14]tricosa-3(23),4,6,10(22),11,13-hexaene-2,8,8-trione]
+++ (+++ is >600%)	< 1 µM			Cc1cccc(C)c1-c1cc2nc(n1)NS(=O)(=O)c1cccc(c1)C(=O)N1CCc3cc(C(C)(C)C)ccc3[C@@H](O2)[C@H]1CC(C)C [Compound 329]
